Experimental data as given in PubChem BioAssay AID248 (DTP/NCI, 2004).
Inconclusive results and toxic doses are left out. Rule as the data show it: active = T/C of 150% or more; inactive = T/C below 125%.

System: L1210 leukemia ip in BDF1 mice, survival T/C
Assay: NCI In Vivo Anticancer Drug Screen. Data for tumor model L1210 Leukemia (intraperitoneal) in B6D2F1 (BDF1) mice
Conditions: endpoint: mean survival time, higher = longer survival
In short: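 Tumor cells were implanted, animals were treated, and survival was followed. The result divides the treated measurement by the vehicle-control measurement.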

[1] = dose: 100.0 mg/kg/injection, schedule: Q01DX001 (ip), vehicle: saline
[2] = dose: 200.0 mg/kg/injection, schedule: Q01DX001 (ip), vehicle: saline
[3] = dose: 100.0 mg/kg/injection, schedule: Q04DX003 (ip), vehicle: saline
[4] = dose: 200.0 mg/kg/injection, schedule: Q04DX003 (ip), vehicle: saline
[5] = dose: 75.0 mg/kg/injection, schedule: Q01DX001 (ip), vehicle: saline
[6] = dose: 150.0 mg/kg/injection, schedule: Q01DX001 (ip), vehicle: saline
[7] = dose: 300.0 mg/kg/injection, schedule: Q01DX001 (ip), vehicle: saline
[8] = dose: 100.0 mg/kg/injection, schedule: Q01DX009 (ip), vehicle: saline with Tween-80
[9] = dose: 200.0 mg/kg/injection, schedule: Q01DX009 (ip), vehicle: saline with Tween-80
[10] = dose: 400.0 mg/kg/injection, schedule: Q01DX009 (ip), vehicle: saline with Tween-80
[11] = dose: 50.0 mg/kg/injection, schedule: Q01DX001 (ip), vehicle: carboxymethylcellulose (CMC)
[12] = dose: 100.0 mg/kg/injection, schedule: Q01DX001 (ip), vehicle: carboxymethylcellulose (CMC)
[13] = dose: 200.0 mg/kg/injection, schedule: Q01DX001 (ip), vehicle: carboxymethylcellulose (CMC)
[14] = dose: 400.0 mg/kg/injection, schedule: Q01DX001 (ip), vehicle: carboxymethylcellulose (CMC)

Measured: T/C

CONC(=O)NC(=O)C1(c2ccccc2)CCCCC1
inactive: dose: 25.0 mg/kg/injection, schedule: Q01DX Z (ip), vehicle: carboxymethylcellulose (CMC) 96 % of control | dose: 50.0 mg/kg/injection, schedule: Q01DX Z (ip), vehicle: carboxymethylcellulose (CMC) 95 % of control | [1] 86 % of control | dose: 100.0 mg/kg/injection, schedule: Q01DX Z (ip), vehicle: carboxymethylcellulose (CMC) 95 % of control | [2] 100 % of control | dose: 200.0 mg/kg/injection, schedule: Q01DX Z (ip), vehicle: carboxymethylcellulose (CMC) 102 % of control | dose: 200.0 mg/kg/injection, schedule: Q01DX Z (ip), vehicle: methylcellulose (MC) 119 % of control | dose: 400.0 mg/kg/injection, schedule: Q01DX001 (ip), vehicle: saline 102 % of control | dose: 400.0 mg/kg/injection, schedule: Q01DX Z (ip), vehicle: carboxymethylcellulose (CMC) 96 % of control | dose: 400.0 mg/kg/injection, schedule: Q01DX Z (ip), vehicle: methylcellulose (MC) 112 % of control

Nc1c(S(=O)(=O)O)cc(Br)c2c1C(=O)c1ccccc1C2=O
inactive: dose: 100.0 mg/kg/injection, schedule: Q01DX009 (ip), vehicle: saline 92 % of control | [3] 96 % of control | dose: 200.0 mg/kg/injection, schedule: Q01DX009 (ip), vehicle: saline 95 % of control | [4] 93 % of control | dose: 400.0 mg/kg/injection, schedule: Q01DX009 (ip), vehicle: saline 101 % of control | dose: 400.0 mg/kg/injection, schedule: Q04DX003 (ip), vehicle: saline 95 % of control

COc1cc(CC#N)ccc1C
inactive: dose: 12.5 mg/kg/injection, schedule: Q01DX009 (ip), vehicle: alcohol 104 % of control | dose: 25.0 mg/kg/injection, schedule: Q01DX009 (ip), vehicle: alcohol 98 % of control | dose: 50.0 mg/kg/injection, schedule: Q01DX009 (ip), vehicle: alcohol 101 % of control

CS(=O)(=O)OCC1(Br)CC1(c1ccccc1)c1ccccc1 (stereo not given)
inactive: dose: 100.0 mg/kg/injection, schedule: Q01DX001 (ip), vehicle: other 95 % of control | dose: 200.0 mg/kg/injection, schedule: Q01DX001 (ip), vehicle: other 95 % of control | dose: 400.0 mg/kg/injection, schedule: Q01DX001 (ip), vehicle: other 90 % of control

C[N+](C)(C)c1ncnc2[n-]cnc12
inactive: dose: 50.0 mg/kg/injection, schedule: Q01DX015 (ip), vehicle: saline 110 % of control

NNc1ccccc1Br
inactive: [3] 101 % of control | [4] 102 % of control

OCC1(CO)CCC1(CO)CO
inactive: [5] 106 % of control | dose: 75.0 mg/kg/injection, schedule: Q01DX009 (ip), vehicle: saline 105 % of control | [6] 102 % of control | dose: 150.0 mg/kg/injection, schedule: Q01DX009 (ip), vehicle: saline 105 % of control | [7] 98 % of control | dose: 300.0 mg/kg/injection, schedule: Q01DX009 (ip), vehicle: saline 97 % of control

CC[CH2][Sn]([CH2]CC)[CH2]CC.CC[CH2][Sn]([CH2]CC)[CH2]CC
inactive: dose: 12.5 mg/kg/injection, schedule: Q01DX009 (sc), vehicle: olive oil, sesame oil, peanut oil 97 % of control | dose: 25.0 mg/kg/injection, schedule: Q01DX009 (sc), vehicle: olive oil, sesame oil, peanut oil 100 % of control | dose: 25.0 mg/kg/injection, schedule: Q04DX002 (sc), vehicle: olive oil, sesame oil, peanut oil 102 % of control | dose: 50.0 mg/kg/injection, schedule: Q04DX002 (sc), vehicle: olive oil, sesame oil, peanut oil 102 % of control | dose: 100.0 mg/kg/injection, schedule: Q04DX002 (sc), vehicle: olive oil, sesame oil, peanut oil 115 % of control

COC(OC)c1nc(N)[nH]c(=O)c1Cc1ccc(C)c2ccccc12
inactive: [8] 96 % of control | dose: 100.0 mg/kg/injection, schedule: Q04DX003 (ip), vehicle: saline with Tween-80 103 % of control | [9] 90 % of control | dose: 200.0 mg/kg/injection, schedule: Q04DX003 (ip), vehicle: saline with Tween-80 97 % of control | [10] 90 % of control | dose: 400.0 mg/kg/injection, schedule: Q04DX003 (ip), vehicle: saline with Tween-80 92 % of control

NC(=S)N/N=C/c1ccccc1O
inactive: [11] 96 % of control | [12] 104 % of control | dose: 100.0 mg/kg/injection, schedule: Q04DX002 (ip), vehicle: saline with Tween-80 90 % of control | [13] 91 % of control | dose: 200.0 mg/kg/injection, schedule: Q04DX002 (ip), vehicle: saline with Tween-80 104 % of control | [14] 91 % of control | dose: 400.0 mg/kg/injection, schedule: Q04DX002 (ip), vehicle: saline with Tween-80 93 % of control

Cc1c(C(=O)OCCCl)c(=O)n(-c2ccccc2)n1C
inactive: [1] 98 % of control | [2] 98 % of control

CC(C)C1=CC23CCC4C(C)(C(=O)O)CCCC4(C)C2CC13 (stereo not given)
inactive: [8] 88 % of control | [9] 90 % of control | [10] 91 % of control

c1ccc2c(c1)ccc1c[n+]3c(ccc4ccccc43)cc12
inactive: dose: 25.0 mg/kg/injection, schedule: Q01DX001 (ip), vehicle: carboxymethylcellulose (CMC) 104 % of control | [11] 108 % of control

Cn1c(=O)c2c(nc(C3CC4C5CCC(C5)C4C3)n2C)n(C)c1=O (stereo not given)
inactive: [12] 103 % of control | [13] 95 % of control | [14] 95 % of control

c1ccc(OCCOCCOc2ccccc2)cc1
inactive: dose: 75.0 mg/kg/injection, schedule: Q01DX009 (ip), vehicle: Klucel (hydroxypropylcellulose) (HPC) 96 % of control | dose: 100.0 mg/kg/injection, schedule: Q04DX002 (ip), vehicle: Klucel (hydroxypropylcellulose) (HPC) 98 % of control | dose: 150.0 mg/kg/injection, schedule: Q01DX009 (ip), vehicle: Klucel (hydroxypropylcellulose) (HPC) 114 % of control | dose: 200.0 mg/kg/injection, schedule: Q04DX002 (ip), vehicle: Klucel (hydroxypropylcellulose) (HPC) 102 % of control | dose: 300.0 mg/kg/injection, schedule: Q01DX009 (ip), vehicle: Klucel (hydroxypropylcellulose) (HPC) 96 % of control | dose: 400.0 mg/kg/injection, schedule: Q04DX002 (ip), vehicle: Klucel (hydroxypropylcellulose) (HPC) 91 % of control

O=C(OCC1OC(n2nnc3ccnc(Cl)c32)C(OC(=O)c2ccccc2)C1OC(=O)c1ccccc1)c1ccccc1 (stereo not given)
inactive: dose: 50.0 mg/kg/injection, schedule: Q01DX005 (ip), vehicle: saline with Tween-80 93 % of control | dose: 100.0 mg/kg/injection, schedule: Q01DX005 (ip), vehicle: saline with Tween-80 98 % of control | dose: 200.0 mg/kg/injection, schedule: Q01DX005 (ip), vehicle: saline with Tween-80 104 % of control

Cc1c(Cl)ccc2c(C(=O)O)cc(-c3ccc(Cl)cc3)nc12
inactive: [12] 100 % of control | [13] 94 % of control | [14] 92 % of control

C/C=C/C(C1=C(O)c2ccccc2C(=O)C1=O)C1=C(O)c2ccccc2C(=O)C1=O
inactive: dose: 75.0 mg/kg/injection, schedule: Q01DX001 (ip), vehicle: carboxymethylcellulose (CMC) 100 % of control | dose: 150.0 mg/kg/injection, schedule: Q01DX001 (ip), vehicle: carboxymethylcellulose (CMC) 118 % of control | dose: 300.0 mg/kg/injection, schedule: Q01DX001 (ip), vehicle: carboxymethylcellulose (CMC) 108 % of control

O=[N+]([O-])c1cc(S(=O)(=O)O)cc([N+](=O)[O-])c1Cl
inactive: [5] 112 % of control | [6] 109 % of control | [7] 113 % of control

O=c1nc2c3ncn(Cc4ccccc4)c3nnn2[nH]1
inactive: [12] 100 % of control | [13] 106 % of control | [14] 100 % of control
